# Reference: US6521623B1, “N,N'-disubstituted benzimidazolone derivatives with affinity at the serotonin and dopamine receptors” (Boehringer Ingelheim Pharma KG, priority 2000, dated 2003)
# Like-named read-outs stand apart in the source and are kept apart here.
# Assays:
# [1] = molecular target: T1, D4 human receptors (Homo sapiens, UniProt P21917); test: D4 Radioligand Receptor Binding Assay ([3H] YM-09151-2, CHO cell membranes); settings: compound 10^−7 M, singlicate, [3H] YM-09151-2 0.15-0.25 nM
# T1 construct: expressed in transfected cells; host or cells: CHO cells
# T1 sequence (P21917 1-419): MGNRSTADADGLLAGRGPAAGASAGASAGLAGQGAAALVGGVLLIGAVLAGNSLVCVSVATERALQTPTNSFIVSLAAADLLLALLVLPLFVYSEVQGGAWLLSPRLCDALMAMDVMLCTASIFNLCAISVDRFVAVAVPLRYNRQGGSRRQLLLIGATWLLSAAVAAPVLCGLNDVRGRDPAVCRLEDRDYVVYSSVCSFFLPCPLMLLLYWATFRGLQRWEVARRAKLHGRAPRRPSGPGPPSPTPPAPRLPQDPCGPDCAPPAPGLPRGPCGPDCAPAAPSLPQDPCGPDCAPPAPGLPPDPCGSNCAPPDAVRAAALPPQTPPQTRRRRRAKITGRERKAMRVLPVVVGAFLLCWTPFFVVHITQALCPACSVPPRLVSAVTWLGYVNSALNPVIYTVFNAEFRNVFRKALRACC
# Method: D4 Radioligand Receptor Binding Assay
# Membranes from CHO cells expressing D4 human receptors, were suspended in incubation buffer.
# Binding assays were performed in MultiProbe 204 pipetting system (Packard), according to a predetermined mapping, consistent with the software Screen. The compounds were tested in singlicate at one concentration (10^−7 M) in a total volume of 1000 μl (980 μl of diluted membranes, 10 μl DMSO or unlabelled ligand and 10 μl of [^3H] YM-09151-2 (0.15-0.25 nM). After incubation for 120 minutes at 27° C., the reaction was stopped by rapid filtration through Tomtec Cell Harvester (48 wells) using Filtermat B (presoaked in 0.1% PEI) filters. Filters were washed with ice-cold 50 mM Tris-HCl (pH 7.4) buffer (9×700 μl), dried, covered with MeltiLex B/HS (Wallac) scintillator sheets and heated in oven at 80° C. to 90° C. for about 10 minutes, transferred into plastic sample bags (Wallac), sealed, and put into 1024 Beta Plate scintillation counter (Wallac). Non-specific binding was determined in the presence of clozapine dissolved in DMSO to a final concentration of 10^−5 M.
# (§1) The specific radioligand binding to the receptor was defined by the difference between total binding and non-specific binding, determined in the presence of an excess of unlabelled ligand. Results were expressed as percentage of control specific binding obtained in the presence of the compounds.
# [2] = molecular target: T2, 5-HT1A (Homo sapiens, UniProt P08908); test: 5HT1A Radioligand Receptor Binding Assay ([3H]-8-OH-DPAT, CHO cell membranes); set-up: expressed in transfected cells; host or cells: CHO cells
# T2 sequence (P08908 1-422): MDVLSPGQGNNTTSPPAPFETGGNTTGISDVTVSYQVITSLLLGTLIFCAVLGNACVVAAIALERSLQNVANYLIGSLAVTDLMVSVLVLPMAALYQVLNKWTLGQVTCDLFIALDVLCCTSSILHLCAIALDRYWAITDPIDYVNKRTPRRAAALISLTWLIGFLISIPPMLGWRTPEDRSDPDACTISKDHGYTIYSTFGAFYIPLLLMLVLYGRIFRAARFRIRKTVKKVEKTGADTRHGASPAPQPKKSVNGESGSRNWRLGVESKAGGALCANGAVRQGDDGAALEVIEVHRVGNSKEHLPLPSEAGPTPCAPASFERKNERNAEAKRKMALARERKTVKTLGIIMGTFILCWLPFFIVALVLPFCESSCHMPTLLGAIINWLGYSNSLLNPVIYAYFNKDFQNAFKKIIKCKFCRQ
# Method: 5HT1A Radioligand Receptor Binding Assay
# Membranes from CHO cells, expressing 5-HT1A human receptors were suspended in incubation buffer.
# Binding assays were performed in MultiProbe 204 pipetting system (Packard), according to a predetermined mapping, consistent with the software Screen. The compounds were tested in singlicate at one concentration (10^−7 M) in a total volume of 1000 μl. 980 μl of diluted membranes, 10 μl DMSO or unlabelled ligand and 10 μl of [^3H]-8-OH-DPAT (0.6-0.7 nM) were incubated for 60 minutes at 27° C. The reaction was stopped by rapid filtration through Tomtec Cell Harvester (48 wells) using Filtermat B (presoaked in 0.1% PEI) filters. Filters were washed with ice-cold 50 mM Tris-HCl (pH 7.4) buffer (9×700 μl), dried, covered with MeltiLex B/HS scintillator sheets (Wallac) and heated at 80° C. to 90° C. for about 10 minutes, transferred into plastic sample bags (Wallac), sealed, and put into 1024 Beta Plate scintillation counter (Wallac). Non-specific binding was determined in the presence of 5-HT (10^−5 M).
# as §1, with “compounds. The affinity values (IC50) for the compounds were obtained by a nonlinear least squares regression analysis on the basis of a one binding site model.” for “compounds.”
# [3] = compound 10^−7 M, singlicate, [3H]-8-OH-DPAT 0.6-0.7 nM, CHO membranes, human 5-HT1A
# [4] = [3H]-8-OH-DPAT, CHO membranes, human 5-HT1A, read-out: 5-HT1A Receptor Binding IC50
Compound,D4 Receptor Binding Assay % inhibition (10^−7 M) [1],"5-HT1A Receptor Binding Assay % inhibition (10^−7 M) [2, 3]","IC50 [2, 4]",also measured
O=c1n(CCO)c2ccccc2n1CCN1CCN(c2ccccn2)CC1 [Compound 182],45%,62%,–,–
CCNC(=O)OCCn1c(=O)n(CCCCN2CCN(c3ccccc3OC)CC2)c2ccccc21 [Compound 93],62%,94%,–,–
CCNC(=O)OCCn1c(=O)n(CCCCN2CCN(c3cccc(Cl)c3)CC2)c2ccccc21 [Compound 79],58%,86%,–,–
O=c1n(CCN2CC=C(c3ccccc3)CC2)c2ccccc2n1CCN1CCCCC1 [Compound 150],52%,57%,–,–
CCNC(=O)OCCn1c(=O)n(CCCCN2CCN(c3ccc(Cl)c(Cl)c3)CC2)c2ccccc21 [Compound 85],79%,77%,–,–
Cc1cccc(N2CCN(C/C=C\Cn3c(=O)n(CCNS(C)(=O)=O)c4ccccc43)CC2)c1C [Compound 512],–,–,0.59 nM,–
O=c1n(CCO)c2ccccc2n1CCCCN1CCN(c2ccc(Cl)c(Cl)c2)CC1 [Compound 66],99%,65%,–,–
CCNC(=O)OCCn1c(=O)n(CCCCN2CCN(c3ccccn3)CC2)c2ccccc21 [Compound 78],44%,69%,–,–
O=c1n(C/C=C/CN2CC=C(c3ccccc3)CC2)c2ccccc2n1CCN1CCCCC1 [Compound 336],81%,90%,–,–
O=c1n(CCCCN2CCc3c([nH]c4ccccc34)C2)c2ccccc2n1CCN1CCCCC1 [Compound 26],94%,70%,–,–
CS(=O)(=O)NCCn1c(=O)n(C/C=C/CN2CCN(c3ccccn3)CC2)c2ccccc21 [Compound 520],–,–,8.1 nM,–
O=c1n(C/C=C\CN2CCc3c([nH]c4ccccc34)C2)c2ccccc2n1CCO [Compound 367],90%,61%,–,–
CS(=O)(=O)NCCn1c(=O)n(C/C=C\CN2CC=C(c3ccccc3)CC2)c2ccccc21 [Compound 504],–,–,–,IC50 [2]: 3.6 nM
COCCn1c(=O)n(C/C=C/CN2CCN(c3ccccn3)CC2)c2ccccc21 [Compound 296],–,–,8.2 nM,–
O=c1n(C/C=C\CN2CC=C(c3ccccc3)CC2)c2ccccc2n1CCO [Compound 370],–,–,–,IC50 [2]: 4.4 nM
CC(=O)NCCn1c(=O)n(C/C=C\CN2CCN(c3cccc(C)c3C)CC2)c2ccccc21 [Compound 468],–,–,3.1 nM,–
CCNC(=O)OCCn1c(=O)n(C/C=C/CN2CCN(c3ccccn3)CC2)c2ccccc21 [Compound 415],–,–,14 nM,–
CC(=O)NCCn1c(=O)n(CCN2CCN(c3cccc(C)c3C)CC2)c2ccccc21 [Compound 446],–,–,7.3 nM,–

# Second part, led by results:
D4 Receptor Binding Assay % inhibition (10^−7 M) [1],"5-HT1A Receptor Binding Assay % inhibition (10^−7 M) [2, 3]","IC50 [2, 4]",Compound,also measured
58%,78%,–,CS(=O)(=O)NCCn1c(=O)n(C/C=C\CN2CCN(c3ccc(Cl)c(Cl)c3)CC2)c2ccccc21 [Compound 505],–
94%,72%,–,O=c1n(C/C=C\CN2CCc3c([nH]c4ccccc34)C2)c2ccccc2n1CCN1CCCCC1 [Compound 316],–
92%,100%,–,O=c1n(C/C=C/CN2CCN(c3cccc(Cl)c3)CC2)c2ccccc2n1CCN1CCCCC1 [Compound 331],–
31%,73%,–,O=c1n(C/C=C/CN2CCN(c3ncccn3)CC2)c2ccccc2n1CCN1CCOCC1 [Compound 349],–
74%,78%,–,O=c1n(C/C=C/CN2CCN(c3ccccc3)CC2)c2ccccc2n1CCN1CCCCC1 [Compound 327],–
–,–,3.5 nM,O=c1n(C/C=C/CN2CCN(c3cccc(C(F)(F)F)c3)CC2)c2ccccc2n1CCN1CCCCC1 [Compound 335],–
–,–,16 nM,O=c1n(C/C=C/CN2CCc3c([nH]c4ccccc34)C2)c2ccccc2n1CCN1CCCCC1 [Compound 333],–
–,–,7.9 nM,COCCn1c(=O)n(C/C=C/CN2CCN(c3cccc(Cl)c3)CC2)c2ccccc21 [Compound 297],"inhibition at 0.1 µM [1]: 34%; inhibition at 0.1 µM [2, 3]: 96%"
39%,93%,–,CCNC(=O)OCCn1c(=O)n(C/C=C/CN2CCN(c3ccccc3)CC2)c2ccccc21 [Compound 412],–
95%,59%,–,O=c1n(C/C=C\CN2CCN(c3ccc(Cl)c(Cl)c3)CC2)c2ccccc2n1CCO [Compound 371],–
–,–,9.5 nM,Cc1cccc(N2CCN(C/C=C/Cn3c(=O)n(CCNS(C)(=O)=O)c4ccccc43)CC2)c1 [Compound 536],–
–,–,8.8 nM,CC(=O)NCCn1c(=O)n(C/C=C\CN2CCN(c3cccc(C(F)(F)F)c3)CC2)c2ccccc21 [Compound 459],–
55%,104%,–,O=c1n(CCCCN2CCN(c3cccc(Cl)c3)CC2)c2ccccc2n1CCN1CCOCC1 [Compound 43],–
–,–,3.5 nM,O=c1n(C/C=C\CN2CCN(c3cccc(C(F)(F)F)c3)CC2)c2ccccc2n1CCO [Compound 369],–
–,–,44 nM,O=c1n(C/C=C/CN2CCN(c3ccccn3)CC2)c2ccccc2n1CCO [Compound 381],–
–,–,15 nM,O=c1n(C/C=C\CN2CCN(c3ccccc3)CC2)c2ccccc2n1CCN1CCCCC1 [Compound 310],–
–,–,7.9 nM,O=c1n(C/C=C/CN2CCN(c3ccccn3)CC2)c2ccccc2n1CCN1CCCCC1 [Compound 330],–
–,–,4.1 nM,O=c1n(C/C=C/CN2CCN(c3cccc(C(F)(F)F)c3)CC2)c2ccccc2n1CCN1CCOCC1 [Compound 352],–
–,–,13 nM,O=c1n(C/C=C/CN2CCN(c3ccccn3)CC2)c2ccccc2n1CCN1CCOCC1 [Compound 347],–
–,–,3.1 nM,O=c1n(C/C=C\CN2CCN(c3cccc(C(F)(F)F)c3)CC2)c2ccccc2n1CCN1CCCCC1 [Compound 318],–
–,–,3.1 nM,CC(=O)NCCn1c(=O)n(C/C=C\CN2CCN(c3ccccc3Cl)CC2)c2ccccc21 [Compound 472],–
–,–,2.8 nM,CS(=O)(=O)NCCn1c(=O)n(C/C=C\CN2CCN(c3cccc(C(F)(F)F)c3)CC2)c2ccccc21 [Compound 503],–
–,–,7.9 nM,CCNC(=O)OCCn1c(=O)n(C/C=C/CN2CCN(c3cccc(Cl)c3)CC2)c2ccccc21 [Compound 416],–
